Where two headings read alike, the source gives them in different places.
Assays:
HBL1^E140X = assay: Growth inhibition assay (CellTiter Glo), HBL1 cells expressing BCL10 E140X; format: cell-based; conditions: Homo sapiens, 96 h
Method: (§1) DLBCL cell lines were cultured in exponential condition and the cell growth was determined by CellTiter Glo (Promega). 3000-5000 cells were seeded and cultured in each well of 384 well plate for 96 h and treated with compounds every 48 h. Luminescence was read at the endpoint with the Synergy NEO microplate reader (BioTek). The value of compound treated cells was normalized to their vehicle treated controls and then used to calculate IC50 in GraphPad Prism (RRID:SCR_002798).
(§2) Given the distinct functional profiles, CARD11 dependencies, and MALT1 activation effects of the BCL10 CARD and truncation mutants, the inventors designed experiments to evaluate whether, and to what extent, these mutant BCL10 proteins might confer BTK inhibitor resistance. Isogenic ABC-DLBCL cells expressing BCL10WT, BCL10^R58Q and BCL10^E140X proteins were treated with escalating doses of three chemically distinct covalent BTK inhibitors: ibrutinib, acalabrutinib, or zanubrutinib. The cellular proliferation rates of the treated cells were measured using an ATP fluorescence assay after 96 hours of drug exposure.
(§3) Isogenic BCL10^WT, BCL10^R58Q and BCL10^E140X ABC-DLBCLs were exposed to increasing concentrations of each of these compounds for 96 hours.

OCI-LY10^WT = assay: Growth inhibition assay (CellTiter Glo), OCI-Ly10 cells expressing BCL10 WT; format: cell-based; conditions: Homo sapiens, 96 h
Method: as §1, §2, §3

OCI-LY10^E140X = assay: Growth inhibition assay (CellTiter Glo), OCI-Ly10 cells expressing BCL10 E140X; format: cell-based; conditions: Homo sapiens, 96 h
Method: as §1, §2, §3

HBL1^WT = assay: Growth inhibition assay (CellTiter Glo), HBL1 cells expressing BCL10 WT; format: cell-based; conditions: Homo sapiens, 96 h
Method: as §1, §2, §3

HBL1^R58Q = assay: Growth inhibition assay (CellTiter Glo), HBL1 cells expressing BCL10 R58Q; format: cell-based; conditions: Homo sapiens, 96 h
Method: as §1, §2, §3

OCI-LY10^R58Q = assay: Growth inhibition assay (CellTiter Glo), OCI-Ly10 cells expressing BCL10 R58Q; format: cell-based; conditions: Homo sapiens, 96 h
Method: as §1, §2, §3

[1] = system: isogenic ABC-DLBCL cells expressing BCL10^WT, BCL10^R58Q and BCL10^E140X; assay: Growth inhibition of isogenic ABC-DLBCL cells, response described in words; format: cell-based, human; conditions: 96 hours
Method: as §1, §2, §3

[2] = read-out: IC50, growth inhibition, BTK inhibitors
[3] = read-out: IC50, growth inhibition, MALT1 inhibitors

Row | IC50 (OCI-LY10^WT; [2]) [nM] | IC50 (OCI-LY10^E140X; [2]) [nM] | IC50 (OCI-LY10^R58Q; [2]) [nM] | IC50 (OCI-LY10^WT; [3]) [nM] | IC50 (OCI-LY10^E140X; [3]) [nM] | IC50 (OCI-LY10^R58Q; [3]) [nM] | SMILES | IC50 (HBL1^E140X; [2]) [nM] | IC50 (HBL1^WT; [2]) [nM] | IC50 (HBL1^R58Q; [2]) [nM] | IC50 (HBL1^E140X; [3]) [nM] | growth response in words ([1]; BCL10^R58Q ABC-DLBCL cells) | growth response in words ([1]; BCL10^WT ABC-DLBCL cells) | IC50 (HBL1^WT; [3]) [nM] | IC50 (HBL1^R58Q; [3]) [nM]
1 | 6.38 ± 0.35 | 5.39 ± 0.77 | 7.69 ± 0.59 | – | – | – | CC#CC(=O)N1CCC[C@H]1c1nc(-c2ccc(C(=O)Nc3ccccn3)cc2)c2c(N)nccn12 [Acalabrutinib] | 28.2 ± 21.2 | 4.75 ± 2.11 | 5.54 ± 0.32 | – | – | – | – | –
2 | – | – | – | 70 ± 6 | 90 ± 60 | 240 ± 50 | CO[C@H](c1c(NC(=O)Nc2cnc(-n3nccn3)c(Cl)c2)cnc2cc(Cl)nn12)[C@@H](C)OC [MLT-748] | – | – | – | 540 ± 500 | generally sensitive | generally sensitive | 1940 ± 200 | 3320 ± 1460
3 | 1.74 ± 0.08 | 2.86 ± 0.13 | 1.81 ± 0.33 | – | – | – | C=CC(=O)N1CCC([C@@H]2CCNc3c(C(N)=O)c(-c4ccc(Oc5ccccc5)cc4)nn32)CC1 [Zanubrutinib] | 9.31 ± 6.22 | 1.46 ± 0.32 | 1.58 ± 0.06 | – | – | – | – | –
